Source: patent publication US20230158259A1, “PRODUCTS OF MANUFACTURE AND METHODS FOR TREATING, AMELIORATING OR PREVENTING MICROBIAL INFECTIONS” (TOPELIA AUST LIMITED, priority 2020, published 2023)

Columns and labels:
COVID-19 coronavirus = type: in vivo, human; conditions: group of elderly cruise travelers
coronavirus COVID-19 = type: in vivo; conditions: after 4 days of osteltamivir alone, started at time of contact

SMILES | contraction of COVID-19 coronavirus (COVID-19 coronavirus) | test for the virus upon arrival home after the cruise (COVID-19 coronavirus) | blood result for COVID-19 virus (coronavirus COVID-19)
CCN(CC)CCCC(C)Nc1ccnc2cc(Cl)ccc12 (stereo not drawn) [chloroquine] | None contract COVID-19 coronavirus | negative | –
CCOC(=O)C1=C[C@@H](OC(CC)CC)[C@H](NC(C)=O)[C@@H](N)C1 [osteltamivir, oseltamivir] | – | – | positive
